Reference: patent US12331042B2, “Compounds suitable for the treatment and prophylaxis of muscle wasting and other conditions” (priority 2019, dated 2025)
Entries after “also recorded” stand apart in the source; their conditions may differ.

Legend:
[1] = Storage stability at room temperature (NMR, LC-MS); assay type: physicochemical; conditions: several months storage at room temperature; confirmed via NMR and LC-MS
From the text: [2-(2-Furylmethylcarbamoylamino)-2-oxo-ethyl]

[2] = system: diaphragm fiber bundle of CHF mice; assay: Contractile function of diaphragm fiber bundles, CHF mice; assay type: in vivo
Experimental: To provide a direct functional assessment, the contractility in skeletal muscle fiber bundles, i.e. fibre bundle from the diaphragm of MCT mice and CIF mice, was measured as follows. A fiber bundle from the diaphragm was isolated to allow in vitro contractile function to be assessed using a length-controlled lever system (301B, Aurora Scientific Inc., Aurora, Canada), as described by Bowen et al., FASEB J, 2017, 31. Briefly, a muscle bundle was mounted vertically in a buffer-filled organ bath (˜22° C.), set at optimal length, and after 15 min was stimulated over a force-frequency protocol between 1-300 Hz (600 mA; 500 ms train duration; 0.25 ms pulse width). […] Shortening velocity was determined 10 ms after the first change in length and on the linear section of the transient (DMA software, Aurora Scientific). Force (N) was normalized to muscle cross-sectional area (CSA; cm^2) by dividing muscle mass (g) by the product of Lo (cm) and estimated muscle density (1.06), which allowed specific force in N/cm^2 to be calculated. Shortening velocity was normalized to optimal muscle length (in Lo/s), while power was calculated for each load as the product of shortening velocity and specific force (in W/cm^2).

[3] = system: MAFbx, MuRF1, CARP, BAX, eIF2B-delta expression; assay: Western blot analysis of TA muscle, MCT mice; assay type: in vivo
From the text: The Western blot analyses consisted of frozen TA muscle samples being homogenized in RIPA buffer (50 mmol/L Tris, 150 mmol/L sodium chloride, 1 mmol/L EDTA, 1% NP-40, 0.25% sodium-deoxycholate, 0.1% SDS, 1% Triton X-100; pH 7.4) or relax buffer (90 mmol/L HEPES, 126 mmol/L potassium chloride, 1 mmol/L MgCl, 50 mmol/L EGTA, 8 mmol/L ATP, 10 mmol/1 Creatinephosphate; pH 7.4) containing a protease inhibitor mix (Inhibitor mix M, Serva, Heidelberg, Germany), sonicated, and centrifuged at 16,000×g for 5 min. Protein concentration of the supernatant was determined (BCA assay, Pierce, Bonn, Germany) and aliquots (5-20 μg) were separated by SDS-polyacrylamide gel electrophoresis. Proteins were transferred to a polyvinylidene fluoride membrane (PVDF) and incubated overnight at 4° C. with the following primary antibodies: MAFbx ( 1/2000, Eurogentec, Seraing, Belgium), MuRF1 ( 1/1000, Myomedix Ltd., Neckargemünd, Germany), CARP ( 1/500, Myomedix Ltd., Neckargemünd, Germany), BAX ( 1/1000; Abcam, Cambridge, UK), and eIF2B-delta ( 1/200; Santa Cruz Biotechnolgy, Santa Cruz, USA). Membranes were subsequently incubated with a horseradish peroxidase-conjugated secondary antibody and specific bands visualized by enzymatic chemiluminescence (Super Signal West Pico, Thermo Fisher Scientific Inc., Bonn, Germany) and densitometry quantified using a 1D scan software package (Scanalytics Inc., Rockville, USA). Blots were then normalized to the loading control GAPDH ( 1/30000; HyTest Ltd, Turku, Finland). All data are presented as fold change relative to sham.

[4] = system: porin, telethonin, MRPS-5, MuRF1, MuRF2, Tom20 expression; assay: Western blot analysis of diaphragm, CHF mice; assay type: in vivo
Experimental: For western blot analyses, frozen diaphragm was homogenized in relaxing buffer (90 mmol/L HEPES, 126 mmol/L potassium chloride, 36 mmol/L sodium chloride, 1 mmol/L magnesium chloride, 50 mmol/L EGTA, 8 mmol/L ATP, and 10 mmol/L creatine phosphate, pH 7.4) containing a protease inhibitor mix (Inhibitor Mix M, Serva, Heidelberg, Germany) and sonicated. Protein concentration of the supernatant was determined (bicinchoninic acid assay, Pierce, Bonn, Germany), and aliquots (5-20 μg) were separated by sodium dodecyl sulfate-polyacrylamide gel electrophoresis. Proteins were transferred to a polyvinylidene fluoride membrane and incubated overnight at 4° C. using the following primary antibodies: porin and telethonin (both 1/1000, Abcam, Cambridge, UK), MRPS-5 ( 1/500, Thermo Fisher, Rockford, IL, USA), MuRF1 and MuRF2 (both 1/1000; commercially available from Myomedix, Neckargemünd, Germany), and Tom20 (1:200, Santa Cruz Biotechnologies, Heidelberg, Germany). Membranes were subsequently incubated with a horseradish peroxidase conjugated secondary antibody, specific bands were visualized by enzymatic chemiluminescence (Super Signal West Pico, Thermo Fisher Scientific Inc., Bonn, Germany), and densitometry was quantified using a one-dimensional scan software package (Scanalytics Inc., Rockville, MD, USA). Measurements were normalized to the loading control GAPDH ( 1/30000; HyTest Ltd, Turku, Finland) or α-tubulin (1:1000, Santa Cruz Biotechnologies). All data are presented as fold change relative to sham.

Cc1cc(=O)oc2cc(OCc3ccc(C(=O)OCC(=O)NC(=O)NCc4ccco4)cc3)ccc12 [MyoMed-946, [2-(2-furylmethylcarbamoylamino)-2-oxo-ethyl] 4-[(4-methyl-2-oxo-chromen-7-yl)oxymethyl]benzoate]
decay on storage [1]: no trace of decay
post-infarct diaphragm weakness (diaphragm myopathy) ([2]; CHF mice fed compound vs control chow, week 10): protected mice from such a post-infarct diaphragm weakness
loss of diaphragm function and diaphragm maximal force due to chronic heart failure ([2]; CHF mice fed compound vs untreated CHF mice): significantly reduced
increase in CARP expression ([3]; MCT+compound vs MCT): attenuated; also recorded: abolished
increased protein expression of MuRF1 ([3]; MCT+compound vs MCT): attenuated; also recorded: prevented
protein expression of MAFBx ([3]; MCT+compound vs MCT): No changes are detected; also recorded: no effects were observed
expression of eIF2B (delta subunit) ([3]; MCT+compound vs MCT, confirmed by immunoblotting): upregulation
expression of BAX ([3]; MCT+compound, upregulated in MCT vs sham): normalized
TOM-20 expression ([4]; CHF+compound): attenuated; also recorded: modest, but statistically significant, improvement
mitochondrial porin expression ([4]; CHF+compound): attenuated; also recorded: near-normal
reduction of Mrps5 expression (Western blot) ([4]; CHF+compound vs CHF): reversed
up-regulation of MuRF1 expression ([4]; CHF+compound vs CHF): attenuated; also recorded: prevented
up-regulation of MuRF2 expression ([4]; CHF+compound vs CHF): attenuated; also recorded: prevented
reduced expression of telethonin ([4]; trend (P=0.08) in CHF group): attenuated; also recorded: not evident
